Assay results: PubChem BioAssay AID1919006 (Molecular Pharmacology Branch, DTP, NCI, 2023)

Test system: 885512-296-R-J2-PDC complex spheroid growth, % test/control
Experiment: Anticancer human tumor 885512-296-R-J2-PDC patient-derived breast carcinoma cell line growth inhibition [AhR]
Conditions: for IC50: curve of first compound; for viability, T/C: stronger effect = lower value
Outline: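 Complex tumor spheroids co-cultured with HUVEC and human MSC stroma; AhR antagonists tested in combination with standard-of-care and investigational agents. Top concentration at or near clinical Cmax (else 10 microM), half-log dilutions; growth expressed as percent test/control.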

[1] = second compound 0.1 µM, first compound 0.0316 µM
[2] = second compound 0.1 µM, first compound 0.1 µM
[3] = second compound 0.1 µM, first compound 0.316 µM
[4] = second compound 0.1 µM, first compound 1 µM
[5] = second compound 0.1 µM, first compound 3.16 µM
[6] = second compound 0.1 µM, first compound 10 µM
[7] = second compound 0.316 µM, first compound 0.0316 µM
[8] = second compound 0.316 µM, first compound 0.1 µM
[9] = second compound 0.316 µM, first compound 0.316 µM
[10] = second compound 0.316 µM, first compound 1 µM
[11] = second compound 0.316 µM, first compound 3.16 µM
[12] = second compound 0.316 µM, first compound 10 µM
[13] = second compound 1 µM, first compound 0.0316 µM
[14] = second compound 1 µM, first compound 0.1 µM
[15] = second compound 1 µM, first compound 0.316 µM
[16] = second compound 1 µM, first compound 1 µM
[17] = second compound 1 µM, first compound 3.16 µM
[18] = second compound 1 µM, first compound 10 µM
[19] = second compound 3.16 µM, first compound 0.0316 µM
[20] = second compound 3.16 µM, first compound 0.1 µM
[21] = second compound 3.16 µM, first compound 0.316 µM
[22] = second compound 3.16 µM, first compound 1 µM
[23] = second compound 3.16 µM, first compound 3.16 µM
[24] = second compound 3.16 µM, first compound 10 µM
[25] = second compound 10 µM, first compound 0.0316 µM
[26] = second compound 10 µM, first compound 0.1 µM
[27] = second compound 10 µM, first compound 0.316 µM
[28] = second compound 10 µM, first compound 1 µM
[29] = second compound 10 µM, first compound 3.16 µM
[30] = second compound 10 µM, first compound 10 µM
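Further: spheroids exposed to compounds for seven days.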

Row | IC50 (second compound 0.1 µM) [nM] | IC50 (second compound 0.316 µM) [nM] | IC50 (second compound 1 µM) [nM] | IC50 (second compound 3.16 µM) [nM] | IC50 (second compound 10 µM) [nM] | Structure (SMILES) | viability, T/C [1] [%] | viability, T/C [2] [%] | viability, T/C [3] [%] | viability, T/C [4] [%] | viability, T/C [5] [%] | viability, T/C [6] [%] | viability, T/C [7] [%] | viability, T/C [8] [%] | viability, T/C [9] [%] | viability, T/C [10] [%] | viability, T/C [11] [%] | viability, T/C [12] [%] | viability, T/C [13] [%] | viability, T/C [14] [%] | viability, T/C [15] [%] | also measured
1 | 1040 | 1120 | 1060 | 373 | < 31.6 | Nc1ccccc1NC(=O)c1ccc(CNC(=O)OCc2cccnc2)cc1 + Cc1cncc(-c2nc(NCCc3c[nH]c4ccccc34)c3ncn(C(C)C)c3n2)c1 | 85.6 | 102 | 80.5 | 47.3 | 31.2 | 12.6 | 86.9 | 94.4 | 72 | 49.4 | 32.7 | 12.2 | 82.3 | 78.7 | 77.7 | viability, T/C [16]: 48%; viability, T/C [17]: 29.6%; viability, T/C [18]: 15.2%; viability, T/C [19]: 56.6%; viability, T/C [20]: 61.3%; viability, T/C [21]: 49.5%; viability, T/C [22]: 40.4%; viability, T/C [23]: 25.1%; viability, T/C [24]: 15.2%; viability, T/C [25]: 21.3%; viability, T/C [26]: 19.4%; viability, T/C [27]: 15.9%; viability, T/C [28]: 11.6%; viability, T/C [29]: 9.94%; viability, T/C [30]: 9.37%
2 | 1010 | 1340 | 680 | 153 | < 31.6 | O=C(C=Cc1cccc(S(=O)(=O)Nc2ccccc2)c1)NO + Cc1cncc(-c2nc(NCCc3c[nH]c4ccccc34)c3ncn(C(C)C)c3n2)c1 | 77.7 | 93.9 | 70.5 | 45 | 30.8 | 7.26 | 86.3 | 80.5 | 74.2 | 50 | 37.5 | 7.14 | 96.1 | 72.5 | 65.2 | viability, T/C [16]: 41.1%; viability, T/C [17]: 31.1%; viability, T/C [18]: 9.39%; viability, T/C [19]: 52.2%; viability, T/C [20]: 62%; viability, T/C [21]: 39.5%; viability, T/C [22]: 31.8%; viability, T/C [23]: 21.8%; viability, T/C [24]: 10.2%; viability, T/C [25]: 20.6%; viability, T/C [26]: 20.6%; viability, T/C [27]: 19.5%; viability, T/C [28]: 16%; viability, T/C [29]: 12.6%; viability, T/C [30]: 5.42%
3 | 6620 | 7170 | 6440 | 3070 | < 31.6 | O=C(c1cc(Cc2n[nH]c(=O)c3ccccc23)ccc1F)N1CCN(C(=O)C2CC2)CC1 + Cc1cncc(-c2nc(NCCc3c[nH]c4ccccc34)c3ncn(C(C)C)c3n2)c1 | 109 | 102 | 107 | 112 | 86.4 | 29.7 | 107 | 98.4 | 97.2 | 109 | 95 | 31.3 | 85.3 | 82.7 | 99.1 | viability, T/C [16]: 87.2%; viability, T/C [17]: 81.9%; viability, T/C [18]: 30.3%; viability, T/C [19]: 54.4%; viability, T/C [20]: 60.1%; viability, T/C [21]: 62.5%; viability, T/C [22]: 60.1%; viability, T/C [23]: 49.8%; viability, T/C [24]: 24.6%; viability, T/C [25]: 15.5%; viability, T/C [26]: 19.7%; viability, T/C [27]: 17.1%; viability, T/C [28]: 17.1%; viability, T/C [29]: 17.5%; viability, T/C [30]: 15.2%
